Measured values from patent US8535662B2, “Apyrase therapy for bleeding conditions” (Apt Therapeutics, Inc., priority 2010, dated 2013).
Where “and” joins values, the source holds several entries; their conditions need not be identical. Identical values can stand only once. Marks after values point to notes of the source that are not given here.

Key:
[1] = tested on: dogs, coronary thrombotic occlusion; assay: Canine coronary thrombosis and fibrinolysis model, adjunctive treatment with rtPA (Example 7); format: in vivo, dog; conditions: dogs
Procedure: Thrombotic occlusion was induced by electrical injury to a coronary artery in dogs. […] Buccal mucosa bleeding times, PT, and aPTT were measured as indices of bleeding risk. After 24 hours of reperfusion, infarct size was determined by Evan's blue and triphenyltetrazolium chloride double staining. This protocol is illustrated in FIG. 7.

[2] = tested on: pigs, coronary injury with stenting; assay: Coronary injury and stent in pigs: hematology, blood chemistry, coagulation, bleeding and inflammation markers (Example 6); conditions: for ALT / AST / AlkPh / BUN / Creat / Glu / HGB / K / Na / PCV / Platelets / RBC / Tot. Prot / WBC: single animals and mean ± std. dev.
[3] = tested on: ADP-induced platelet aggregation; assay: Ex vivo ADP-induced platelet aggregation in platelet-rich plasma after dosing rabbits; parameters: species or system rabbit; conditions: clopidogrel 10 mg/kg oral
Excerpt: Blood samples taken at various time points were heparinized.
Data are presented as relative light transmission versus time.

[4] = tested on: ADP-induced platelet aggregation; assay: Ex vivo ADP-induced platelet aggregation in platelet-rich plasma in pigs (Example 5); parameters: species or system pig
[5] = tested on: rats, thromboembolic stroke (MCA occlusion); assay: Rat model of thromboembolic stroke (MCA occlusion by preformed clot), apyrase agent plus aspirin (Example 2); format: in vivo; conditions: for Neurological deficits, median (interquartile range 25th to 75th), modified Bederson score: n = 10
Procedure: In this study, four experimental groups were included (n=10):
(1) control, saline injected gastrically;
(2) aspirin, 1.25 mg/kg (equivalent to 100 mg/day dose in human) injected gastrically once a day, starting 3 days prior to middle cerebral artery (MCA) occlusion and also MCA occlusion until the end of each experiment;
(3) apyrase, dose at 0.75 mg/kg injected IV at 2 h after MCA occlusion;
(4) combination group, aspirin and apyrase agent.
In this clinically relevant embolic model, ischemic brain injury was induced by embolizing preformed clots into the middle cerebral artery (MCA). Ten microliters of blood were withdrawn into a catheter and retained for 15 min to allow formation of a clot. Once the clot was formed, the catheter was advanced 17 mm in the ICA until its tip was 1-2 mm away from the origin of the MCA. The preformed clot in the catheter was then injected, and the catheter was removed. […]
Infarct was measured in the brain section stained with 2,3,5-triphenyltetrazolium chloride (TTC) solution. The infarct volume was expressed as a percentage of the total volume from the ipsilateral hemisphere.
Brain swelling (edema) was determined using a formula: edema=(the volume of the right hemisphere—the volume of the left hemisphere)/the volume of the left hemisphere.
Neurological deficits were determined using a modified Bederson's scoring system as following: 0: no observable deficit; 1: forelimb flexion; 2: forelimb flexion plus decreased resistance to lateral push; 3: unidirectional circling; 4: unidirectional circling plus decreased level of consciousness.
Hemorrhagic transformation was quantified by detection of extracellular hemoglobin content in brain homogenates using Drabkin's reagents.

[6] = tested on: pigs, coronary injury with stenting; assay: Coronary injury (balloon overstretch) and bare metal stent in pigs: platelet accumulation and luminal stenosis (Example 6); format: in vivo, pig
Procedure: Coronary injury with or without stenting in pigs is regarded as the best preclinical model for simulation of human angioplasty (Touchard, A. G., et al., Thromb. Res. (2007) 120:477-484). One coronary artery was injured by balloon overstretch in each pig and the site of injury including some overlap with the non-injured vessel was covered with a single bare metal stent (BMS).
Accumulation of ^111In-labeled autologous platelets on the stents over the first 24 h was measured in 4/6 pigs in each group. Radiolabeled platelets were injected 15 min before the coronary catheterization and the hearts perfusion-fixed after 24 h to obtain the stented vessel segment for counting radiolabeled platelets.

[7] = tested on: rats, embolic stroke (thrombus injection into internal carotid artery); assay: Embolic stroke model in rats, apyrase agent with or without r-tPA (Example 1); format: in vivo, rat; conditions: r-tPA 10 mg/kg alone; brains at 3 days
Procedure: The following groups were included in this study:
(1) control (saline treated), n=11;
(2) apyrase agent at 0.75 mg/kg, n=4;
(3) apyrase agent at 2.25 mg/kg, n=4;
(4) r-tPA (at 10 mg/kg), n=4;
(5) apyrase agent at 0.75 mg/kg plus r-tPA (10 mg/kg) and
(6) apyrase agent at 2.25 mg/kg plus r-tPA (10 mg/kg) (n=10).
All the treatments were initiated at 2 h following thrombus injection into internal carotid artery. Infarct volume and behavioral deficit were determined at day 3 after the stroke.

[8] = by the end of adjunctive therapy
[9] = aspirin 5 mg/kg, clopidogrel 4 mg/kg

Row | Compound | ALT [2] | AST [2] | AlkPh [2] | BUN [2] | Creat [2] | Glu [2] | HGB [2] | K [2] | Na [2] | PCV [2] | Platelets [2] | RBC [2] | Tot. Prot [2] | WBC [2] | other results
1 | COC(=O)[C@H](c1ccccc1Cl)N1CCc2sccc2C1 [clopidogrel] | 47 u/L and 65 u/L and 45 u/L (2×) and 43 u/L and 77 u/L | 61 u/L and 63 u/L and 57 u/L and 31 u/L and 44 u/L and 64 u/L | 131 u/L and 111 u/L and 225 u/L and 180 u/L (2×) and 184 u/L | 13 mg/dL and 12 mg/dL and 8 mg/dL and 7 mg/dL and 11 mg/dL and 5 mg/dL | 0.9 mg/dL (4×) and 1 mg/dL (2×) | 20 mg/dL and 33 mg/dL and 69 mg/dL and 40 mg/dL (2×) and 30 mg/dL | 7.6 g/dL and 7.8 g/dL and 6.7 g/dL and 9.2 g/dL and 9 g/dL and 8.5 g/dL | 4.3 mmol/L and 4.2 mmol/L (2×) and 3.5 mmol/L and 4.4 mmol/L (2×) | 131 mmol/L and 132 mmol/L and 119 mmol/L and 140 mmol/L and 134 mmol/L and 138 mmol/L | 21.4% and 22.9% and 20.8% and 28% and 25% and 25.8% | 248 thns/uL and 347 thns/uL and 345 thns/uL and 294 thns/uL and 298 thns/uL and 225 thns/uL | 4.3 mil/uL and 4.7 mil/uL (2×) and 4.6 mil/uL and 5.8 mil/uL and 5.5 mil/uL | 4.8 g/dL and 5.2 g/dL and 4.2 g/dL and 4.5 g/dL and 4.7 g/dL and 4.6 g/dL | 10.8 thns/uL and 16.1 thns/uL and 11.3 thns/uL and 16.9 thns/uL (2×) and 12 thns/uL | buccal mucosa bleeding time [1]: significantly prolonged; PT [1, 8]: increased; aPTT [1, 8]: increased; blood loss from a standardized incision of the abdominal wall ([2]; 2 and 24 h, blood collected over 5 min): trend for an increase in blood loss by 24 h; template bleeding times relative to apyrase agent or control pigs ([2]; 2 and 24 h, scalpel cut at the edge of the ear): ~3 fold; PT compared to baseline ([2]; 3, 8 and 24 h after gavage): increased significantly compared to baseline; aPTT ([2]; during the time of heparinization): the increase was significant only in clopidogrel-treated pigs; template bleeding time ([2]; summary of findings): markedly increased; time after treatment at which significant effect on platelet aggregation was observed [3]: 5 h; platelet aggregation by 24 h ([4]; 24 h after dosing): persistent inhibition of aggregation; time after dosing at which significant inhibition of ADP-induced platelet aggregation began ([4]; clopidogrel 8 mg/kg gavage plus aspirin and heparin): 5 h
2 | CC(=O)Oc1ccccc1C(=O)O [aspirin] | 48 u/L and 25 u/L and 52 u/L and 50 u/L and 106 u/L | 45 u/L and 24 u/L and 38 u/L and 29 u/L and 211 u/L | 95 u/L and 68 u/L and 132 u/L and 117 u/L and 235 u/L | 12 mg/dL and 10 mg/dL and 4 mg/dL and 7 mg/dL and 11 mg/dL | 1.1 mg/dL (4×) and 0.9 mg/dL | 30 mg/dL and 38 mg/dL and 49 mg/dL and 20 mg/dL and 58 mg/dL | 9.3 g/dL and 8.1 g/dL (3×) and 7.2 g/dL | 3.5 mmol/L and 3.3 mmol/L and 3.6 mmol/L and 3.2 mmol/L and 2.7 mmol/L | 135 mmol/L and 140 mmol/L and 138 mmol/L and 144 mmol/L and 117 mmol/L | 26.8% and 27.7% and 23.9% and 22.8% and 20.7% | 301 thns/uL and 498 thns/uL and 355 thns/uL and 499 thns/uL and 213 thns/uL | 5.19 mil/uL and 4.75 mil/uL and 4.9 mil/uL and 5.07 mil/uL and 4.52 mil/uL | 6 g/dL and 4.5 g/dL and 4 g/dL and 5 g/dL and 4.2 g/dL | 10.3 thns/uL and 16.4 thns/uL and 13.2 thns/uL and 13.9 thns/uL and 13.3 thns/uL | Re-occlusion rate [1, 9]: 100%; Re-occlusion time [1, 9]: 81′; Reperfusion Time ([1]; aspirin 5 mg/kg, clopidogrel 4 mg/kg, after r-tPA): 23′; Neurological deficits, median (interquartile range 25th to 75th), modified Bederson score ([5]; 4 h after MCA occlusion): 3; Neurological deficits, median (interquartile range 25th to 75th), modified Bederson score ([5]; 4 h after MCA occlusion, listed as Aspirin (ASA)): 3 (2-4); Neurological deficits, median (interquartile range 25th to 75th), modified Bederson score ([5]; 8 h after MCA occlusion): 2.5 (2-3); infarct volume, percentage of the total volume of the ipsilateral hemisphere (mean±SD) ([5]; 24 h after MCA occlusion, aspirin 1.25 mg/kg gastrically once a day from 3 days prior, apyrase 0.75 mg/kg IV at 2 h): 20.69±2.85%; Neurological deficits, median (interquartile range 25th to 75th), modified Bederson score ([5]; 24 h after MCA occlusion): significantly less severe than the control group; Neurological deficits, median (interquartile range 25th to 75th), modified Bederson score ([5]; 24 h after MCA occlusion, listed as Aspirin (ASA)): 1.5 (1-2)*; extracellular hemoglobin content in brain homogenates (hemorrhagic transformation, Drabkin's reagents) ([5]; 24 h after ischemic injury): 0.93±0.11; brain edema (brain swelling) ([5]; 24 h after ischemic injury, aspirin 1.25 mg/kg, apyrase 0.75 mg/kg IV at 2 h): 6.81±0.56%; average luminal stenosis ([6]; 30 days after stenting, six measurements in two pigs): 29.6±6%; accumulation of radiolabeled platelets on stented coronaries ([6]; after 24 h, apyrase […] or clopidogrel 8 mg/kg, each with aspirin 10 mg/kg and heparin): 5.5×10^5 platelets/mm^2
3 | heparin | – | – | – | – | – | – | – | – | – | – | – | – | – | – | Activated Clotting Time relative to baseline ([2]; after heparin 150 U/kg): > 9 fold; Activated Clotting Time (ACT) ([2]; after heparin 150 U/kg (baseline 119±15 sec, n=17)): 1114 ± 286 s
4 | r-tPA: recombinant tissue plasminogen activator | – | – | – | – | – | – | – | – | – | – | – | – | – | – | Hemorrhage #/total animals [7]: 5 out of 11 and 5/11
